From patent US12060355B2, “Compounds for use in the treatment of fascioliasis” (Merck Patent GmbH, priority 2018, dated 2024)
Like-named read-outs stand apart in the source and are kept apart here.

How the values were obtained:
[1] = test system: S. mansoni juvenile worms; assay: S. mansoni juvenile worm assay, in vitro; assay type: cell-based; details: Schistosoma mansoni, read-out: S. mansoni Juvenile
Protocol: The routine biological assays using adult or juvenile S. mansoni worms and cytotoxicity assays using MRC-5 cells have been disclosed previously in Mansour, N. R., et al. (2016). “High Throughput Screening Identifies Novel Lead Compounds with Activity against Larval, Juvenile and Schistosoma mansoni PLoS Negl Trop Dis 10(4): e0004659. Cytotoxicity assays using the HepG2 cell line were carried out as described in Molecular Diversity (2015) 19, 251-261. • (a) F. hepatica adult fluke motility score tested at 5 μM. Motility is scored as per the table below: • Good movement Score 1 • (Curled, sticking on wall, movement on petri plate or conical flask) • Moderate movement Score 2 • (Less vigor but more than 10 seconds pulses or peristaltic waves) • Resting Score 3 • (Less than 10 second pulses in head and body) • Apathetic Score 4 • (Head and body with less than 2 second pulses) • Faint movement of suckers Score 5 • (Movement of oral or ventral suckers only, whole body paralyzed) • Inert Score 6 • (No movement at all or dead) • (b) S. mansoni adult worms • (c) S. mansoni juvenile worms • (d) S. haemotobium adult worms • (e) Cytotoxicity against human MRC-5 cell line • (f) Cytotoxicity against human HepG2 cell lines

[2] = test system: human HepG2 cell lines; assay type: cell-based; details: human HepG2 cell line
[3] = test system: F. hepatica adult fluke; assay: F. hepatica adult fluke motility score, in vitro; assay type: cell-based, Fasciola hepatica; parameters: key: Good movement Score 1 • (Curled, sticking on wall, movement on petri plate or conical flask); Moderate movement Score 2 • (Less vigor but more than 10 seconds pulses or peristaltic waves); Resting Score 3 • (Less than 10 second pulses in head and body); Apathetic Score 4 • (Head and body with less than 2 second pulses); Faint movement of suckers Score 5 • (Movement of oral or ventral suckers only, whole body paralyzed); Inert Score 6 • (No movement at all or dead); details: for F. hepatica motility score after 24 h / F. hepatica motility score after 48 h / F. hepatica motility score after 72 h: adult fluke
Text: The routine biological assays using adult liver fluke are described in Alessandra Crusco, Cinzia Bordoni, Anand Chakroborty, Kezia C. L. Whatley, Helen Whiteland, Andrew D. Westwell, Karl F. Hoffmann, “Design, synthesis and anthelmintic activity of 7-keto-sempervirol analogues”, European Journal of Medicinal Chemistry, Volume 152, 2018, Pages 87-100.
The routine biological assays using adult or juvenile S. mansoni worms and cytotoxicity assays using MRC-5 cells have been disclosed previously in Mansour, N. R., et al. (2016). “High Throughput Screening Identifies Novel Lead Compounds with Activity against Larval, Juvenile and Schistosoma mansoni PLoS Negl Trop Dis 10(4): e0004659. […] Motility is scored as per the table below: • Good movement Score 1 • (Curled, sticking on wall, movement on petri plate or conical flask) • Moderate movement Score 2 • (Less vigor but more than 10 seconds pulses or peristaltic waves) • Resting Score 3 • (Less than 10 second pulses in head and body) • Apathetic Score 4 • (Head and body with less than 2 second pulses) • Faint movement of suckers Score 5 • (Movement of oral or ventral suckers only, whole body paralyzed) • Inert Score 6 • (No movement at all or dead) • (b) S. mansoni adult worms • (c) S. mansoni juvenile worms • (d) S. haemotobium adult worms • (e) Cytotoxicity against human MRC-5 cell line • (f) Cytotoxicity against human HepG2 cell lines

[4] = 5 μM, score 1 (good movement) to 6 (inert)

Structure (SMILES): COc1ccc(-c2c(C(C)C)nc3cnc(-c4cccc(C(F)(F)F)c4)cn23)cc1OP(=O)(O)O [Example 28, 2-methoxy-5-[2-(propan-2-yl)-6-[3-(trifluoromethyl)phenyl]imidazo[1,2-a]pyrazin-3-yl]phenoxyphosphonic acid]
- IC50 [1]: 183 nM
- Cytotox HepG2 [2]: 19.2 µM

Structure (SMILES): Cc1nc2cnc(-c3ccc(F)c(C(F)(F)F)c3)cn2c1-c1c(F)cc(OP(=O)(O)O)cc1F [Example 41, 3,5-difluoro-4-{6-[4-fluoro-3-(trifluoromethyl)phenyl]-2-methyl-imidazo[1,2-a]pyrazin-3-yl}phenoxyphosphonic acid]
- IC50 [1]: 100 nM
- Cytotox HepG2 [2]: 6.8 µM

Structure (SMILES): CC(C)c1nn2cnc(-c3ccc(F)c(C(F)(F)F)c3)cc2c1-c1c(F)cc(O)cc1F [Example 47, 3,5-difluoro-4-(5-(4-fluoro-3-(trifluoromethyl)phenyl)-2-isopropylpyrazolo[1,5-c]pyrimidin-3-yl)phenol]
- F. hepatica motility score after 24 h [3, 4]: (6, 6, 6) at 5 μM
- F. hepatica motility score after 48 h ([3]; 5 μM, score 1 to 6 (inert)): (6, 6, 6) at 5 μM
- F. hepatica motility score after 72 h ([3]; 5 μM, score 1 to 6 (inert)): (6, 6, 6) at 5 μM
- Cytotox HepG2 [2]: 8.9 µM

Structure (SMILES): Fc1ccc(-c2cn3c(-c4ccc5[nH]ncc5c4F)c(C(F)(F)F)nc3cn2)cc1C(F)(F)F [Example 50, 3-(4-Fluoro-1H-indazol-5-yl)-6-(4-fluoro-3-trifluoromethylphenyl)-2-trifluoromethyl-imidazo[1,2-a]pyrazine]
- Mean motility score of F hepatica at 24 h ([3]; 0.04 μM): 1, 1, 1
- Mean motility score of F hepatica at 48 h ([3]; 0.04 μM): 1, 1, 1
- Mean motility score of F hepatica at 72 h ([3]; 0.04 μM): 1, 1, 1
- Mean motility score of F hepatica at 24 h ([3]; 0.2 μM): 2
- Mean motility score of F hepatica at 48 h ([3]; 0.2 μM): 2
- Mean motility score of F hepatica at 72 h ([3]; 0.2 μM): 2.5
- Mean motility score of F hepatica at 24 h ([3]; 1 μM): 6, 6, 6
- Mean motility score of F hepatica at 48 h ([3]; 1 μM): 6, 6, 6
- Mean motility score of F hepatica at 72 h ([3]; 1 μM): 6, 6, 6
- Mean motility score of F hepatica at 24 h ([3]; 5 μM): 6, 6, 6
- Mean motility score of F hepatica at 48 h ([3]; 5 μM): 6, 6, 6
- Mean motility score of F hepatica at 72 h ([3]; 5 μM): 6, 6, 6
- F. hepatica motility score after 24 h [3, 4]: (6, 6, 6) at 5 μM
- F. hepatica motility score after 48 h ([3]; 5 μM, score 1 to 6 (inert)): (6, 6, 6) at 5 μM
- F. hepatica motility score after 72 h ([3]; 5 μM, score 1 to 6 (inert)): (6, 6, 6) at 5 μM

Structure (SMILES): Cc1n[nH]c2ccc(-c3c(C(C)C)nc4cnc(-c5cccc(C(F)(F)F)c5)cn34)cc12 [Example 51, 2-Isopropyl-3-(3-methyl-1H-indazol-5-yl)-6-(3-trifluoromethyl-phenyl)-imidazo[1,2-a]pyrazine]
- IC50 ([1]; juvenile worms in vitro, IC50): 830 nM
- Cytotox HepG2 [2]: 10.3 µM

Structure (SMILES): CC(C)c1cc(-c2cn3c(-c4ccc5[nH]ncc5c4F)c(C4CC4)nc3cn2)ccc1F [Example 79, 2-Cyclopropyl-3-(4-fluoro-1H-indazol-5-yl)-6-(4-fluoro-3-isopropyl-phenyl)-imidazo[1,2-a]pyrazine]
- Cytotox HepG2 [2]: 15.7 µM

Structure (SMILES): CC(C)Oc1cc(-c2cn3c(-c4ccc5[nH]ncc5c4F)c(C(F)(F)F)nc3cn2)ccc1F [Example 81, 3-(4-Fluoro-1H-indazol-5-yl)-6-(4-fluoro-3-isopropoxy-phenyl)-2-trifluoromethyl-imidazo[1,2-a]pyrazine]
- Cytotox HepG2 [2]: 9.2 µM

Structure (SMILES): Fc1ccc(-c2cn3c(-c4ccc5[nH]ncc5c4F)c(C(F)(F)F)nc3cn2)cc1C1CCC1 [Example 82, 6-(3-Cyclobutyl-4-fluoro-phenyl)-3-(4-fluoro-1H-indazol-5-yl)-2-trifluoromethyl-imidazo[1,2-a]pyrazine]
- Cytotox HepG2 [2]: 6.1 µM

Structure (SMILES): CC(C)c1cc(-c2cn3c(-c4ccc5[nH]ncc5c4Cl)c(C(F)(F)F)nc3cn2)ccc1F [Example 83, 3-(4-Chloro-1H-indazol-5-yl)-6-(4-fluoro-3-isopropyl-phenyl)-2-trifluoromethyl-imidazo[1,2-a]pyrazine]
- Cytotox HepG2 [2]: 6.6 µM

Structure (SMILES): Fc1ccc(-c2cn3c(-c4ccc5[nH]ncc5c4F)c(C(F)(F)F)nc3cn2)cc1C1CC1 [Example 84, 6-(3-Cyclopropyl-4-fluoro-phenyl)-3-(4-fluoro-1H-indazol-5-yl)-2-trifluoromethyl-imidazo[1,2-a]pyrazine]
- Cytotox HepG2 [2]: 10.5 µM

Structure (SMILES): CC(C)Oc1cccc(-c2cn3c(-c4ccc5[nH]ncc5c4F)c(C(F)(F)F)nc3cn2)c1 [Example 86, 3-(4-Fluoro-1H-indazol-5-yl)-6-(3-isopropoxy-phenyl)-2-trifluoromethyl-imidazo[1,2-a]pyrazine]
- Cytotox HepG2 [2]: 13.2 µM

Structure (SMILES): CC(C)c1cc(-c2cn3c(-c4ccc5[nH]ncc5c4F)c(C(F)(F)F)nc3cn2)ccn1 [Example 87, 3-(4-Fluoro-1H-indazol-5-yl)-6-(2-isopropyl-pyridin-4-yl)-2-trifluoromethyl-imidazo[1,2-a]pyrazine]
- Cytotox HepG2 [2]: 9.5 µM

Structure (SMILES): Fc1c(-c2c(C(F)(F)F)nc3cnc(-c4ccnc(C(F)(F)F)c4)cn23)ccc2[nH]ncc12 [Example 88, 3-(4-Fluoro-1H-indazol-5-yl)-2-trifluoromethyl-6-(2-trifluoromethyl-pyridin-4-yl)-imidazo[1,2-a]pyrazine]
- Cytotox HepG2 [2]: 7.0 µM

Structure (SMILES): CC(C)c1nc2cnc(-c3ccc(F)c(C(F)(F)F)c3)nc2n1-c1c(F)cc(O)cc1F [Example 89, 3,5-Difluoro-4-[2-(4-fluoro-3-trifluoromethyl-phenyl)-8-isopropyl-purin-9-yl]-phenol]
- F. hepatica motility score after 24 h [3, 4]: (6, 6, 6)
- F. hepatica motility score after 48 h ([3]; 5 μM, score 1 to 6 (inert)): (6, 6, 6)
- F. hepatica motility score after 72 h ([3]; 5 μM, score 1 to 6 (inert)): (6, 6, 6)
- Cytotox HepG2 [2]: 4.8 µM

Structure (SMILES): CC(C)c1nc2cnc(-c3cccc(C(F)(F)F)c3)nc2n1-c1ccc(O)cc1F [Example 90, 3-fluoro-4-[8-(propan-2-yl)-2-[3-(trifluoromethyl)phenyl]-9H-purin-9-yl]phenol]
- Cytotox HepG2 [2]: 9.3 µM

Structure (SMILES): COc1ccc(-c2c(C)nc3ccc(-c4cccc(C(F)(F)F)c4)cn23)cc1O [Example 91, 2-methoxy-5-[2-methyl-6-[3-(trifluoromethyl)phenyl]imidazo[1,2-a]pyridin-3-yl]phenol]
- IC50 ([1]; juvenile worms in vitro, IC50): 530 nM

Structure (SMILES): COc1ccc(-c2c(C(C)C)nc3ccc(-c4cccc(C(F)(F)F)c4)cn23)cc1O [Example 92, 2-methoxy-5-[2-isopropyl-6-[3-(trifluoromethyl)phenyl]imidazo[1,2-a]pyridin-3-yl]phenol]
- IC50 ([1]; juvenile worms in vitro, IC50): 360 nM

Structure (SMILES): Cc1nc2ccc(-c3cccc(C(F)(F)F)c3)cn2c1-c1ccc(O)cc1F [Example 93, 3-fluoro-4-[2-methyl-6-[3-(trifluoromethyl)phenyl]imidazo[1,2-a]pyridin-3-yl]phenol]
- IC50 ([1]; juvenile worms in vitro, IC50): 830 nM

Structure (SMILES): CSc1nc2cc(Cl)c(Oc3cccc(Cl)c3Cl)cc2[nH]1 [Triclabendazole, reference compound]
- Mean motility score of F hepatica at 24 h ([3]; 40 μM): 2
- Mean motility score of F hepatica at 48 h ([3]; 40 μM): 3.5
- Mean motility score of F hepatica at 72 h ([3]; 40 μM): 6
- F. hepatica motility score after 24 h ([3]; 40 μM, score 1 to 6 (inert)): 3
- F. hepatica motility score after 48 h ([3]; 40 μM, score 1 to 6 (inert)): 6
- F. hepatica motility score after 72 h ([3]; 40 μM, score 1 to 6 (inert)): 6
